Measurements published in US5395827A, “ω-[2-(phosphonoalkyl)phenyl]-2-aminoalkanoic acids as antagonists of excitatory amino acid receptors” (priority 1993, dated 1995).
pKi: −log10 of the molar value.

What was measured:
[1] = target: kainic acid (KA) receptor; assay: Inhibition of KA-induced currents in rat brain mRNA-injected Xenopus oocytes; assay type: cell-based; conditions: for Ki, inhibition of KA-induced currents: Table I, Xenopus oocytes injected with rat brain mRNA, IC50 converted by Cheng-Prusoff equation; for pKi: read-out: Ki values (Table I)
Experimental: (§1) Defolliculated oocytes obtained from Xenopus laevis females were injected with 30-75 ng of poly (A^+) mRNA obtained from 21-day old male Sprague-Dawley rats. Oocytes are placed individually in […] of antibiotic-supplemented modified Barthes solution (MBS, containing in mM: NaCl, 88; KCl, 1.0; NaHCO3, 2.4; HEPES, 10; MgSO4, 0.82; Ca(NO3)2, 0.33) in 96-well sterile plates and cultured for 48-120 hours prior to experimentation. Oocytes are inspected every 24 hours at which time the bathing solution is replaced with fresh MBS.
(§2) For electrophysiological studies, oocytes are positioned in a small recording chamber ([…]) and superfused with antibiotic-free MBS supplemented with CaCl2 (final concentration=1.4 mM). For NMDA studies, MgSO4 is replaced with NaSO4 (0.55 mM). Oocytes are impaled with a single glass microelectrode, voltage-clamped at -60 to -70 mV, and perfused by gravity feed at a rate of 3-5 ml/min at room temperature. Drugs are dissolved in the perfusate (pH adjusted to 7.3-7.4) and perfused for 1-2 min or until the response has reached a plateau, followed by a 4 min perfusion in the absence of drug(s). Antagonists are coperfused with agonists. MBS used in NMDA assays is prepared from "glycine-free", deionized water.
(§3) Potencies to inhibit kainic acid-, AMPA- and NMDA/glycine-induced currents are determined from concentration-response curves. IC50 values and Hill coefficients are determined by analysis of indirect Hill plots. IC50 values are converted to Ki values for comparison purposes using the Cheng-Prusoff equation.

AMPA receptor = assay: Inhibition of AMPA-induced currents in rat brain mRNA-injected Xenopus oocytes; assay type: cell-based; conditions: Table I; Xenopus oocytes injected with rat brain mRNA; IC50 converted by Cheng-Prusoff equation
Experimental: as §1, §2, §3

[2] = tested on: choline acetyltransferase (ChAT), marker for striatal cholinergic interneurons; assay: Kainic acid-induced striatal toxicity, choline acetyltransferase (ChAT) activity; assay type: in vivo, rat (male Sprague-Dawley)
Experimental: (§4) Kainic acid-induced lesion studies were performed using rats (male Sprague-Dawley, 200-250 g, Harlan Industries). Animals were anesthetized with Chloropent (1.5 ml/kg) and a cannula was inserted into the corpus striatum at the coordinates A 0.8, V 4.3, L 3.0 (bregma=0) using standard stereotaxic procedures. Compounds were dissolved in dH2 O and neutralized using dilute NaOH, and administered over a period of 2 min in a final volume of […]. Following an additional 2 min the cannula was withdrawn, the incision closed with woundclips, and the animals returned to their home cage for a 3 day recovery period. Kainic acid (10 nmoles) was used to induce striatal lesions. Compound XX (300 nmoles) was coadministered with kainic acid.
(§5) Following decapitation, the corpus striatum ipsiand contralateral to the injection were removed, immediately frozen on dry ice, and stored at -80° C. until assayed. The activities of choline acetyltransferase (ChAT) and glutamic acid decarboxylase (GAD), markers for striatal cholinergic and GABAergic interneurons, respectively, were determined using standard procedures to assess the extent of the lesion.
(§6) Ka-induced lesions were performed as described in the text. The results are expressed as the percentage of enzyme activity in the ipsilateral (injected) striatum relative to enzyme activity in the contralateral (uninjected) striatum. The values represent the mean+standard deviation of 4 (Example I) or 12 (vehicle) determinations.

[3] = tested on: glutamic acid decarboxylase (GAD), marker for striatal GABAergic interneurons; assay: Kainic acid-induced striatal toxicity, glutamic acid decarboxylase (GAD) activity; assay type: in vivo, rat (male Sprague-Dawley)
Experimental: as §4, §5, §6

kainate receptors = conditions: U.S. Pat. No. 4,657,899, Table I on column 13; cited from earlier work
NMDA = conditions: U.S. Pat. No. 4,657,899; cited from earlier work
PTZ-induced seizures = assay: Protection against pentylenetetrazole (PTZ)-induced seizures; assay type: in vivo, mouse (male CF-1); conditions: for ED50: Mus musculus, ip, 0.5 h, i.p.; for ED50 / ED50 against PTZ-induced seizures, i.c.v.: 30 min before s.c. PTZ 85 mg/kg
Experimental: Animals were then placed in individual observation cages and monitored for 30 min for the appearance of clonic convulsions. Failure to observe a clonic convulsion lasting at least 5 sec during the observation period was considered evidence of anticonvulsant activity.
PTZ seizure studies were performed as described in the text.

[4] = intrastriatal injection of kainic acid alone (10 nmoles)
[5] = coadministered (300 nmoles) with kainic acid (10 nmoles), intrastriatal, 3 day recovery, mean+standard deviation of 4
[6] = coadministration of kainic acid with Example I

Row | Ki, inhibition of KA-induced currents [1] [µM] | pKi [1] | pKi (AMPA receptor) | Compound | also measured
1 | 68 | > 4.00 | 3.78 | N[C@@H](Cc1cc(F)ccc1CCP(=O)(O)O)C(=O)O [Example 5, 5-Fluoro-2-(2-phosphonoethyl)phenylalanine] | 
2 |  |  |  | C=C(C)[C@H]1CN[C@H](C(=O)O)[C@H]1CC(=O)O [kainic acid, reference compound] | reduction in ChAT activity [2, 4]: 68%; reduction in GAD activity [3, 4]: 55%
3 |  |  |  | NC(Cc1ccccc1CCCP(=O)(O)O)C(=O)O (stereo not drawn) [2-amino-3-[2-(3-phosphonopropyl)phenyl]propanoic acid] | binding affinity for kainate receptors (in words) (kainate receptors): very low binding affinity; NMDA antagonism (in words) (NMDA): antagonists of NMDA
4 | 3.6 | > 4.00 | 4.80 | N[C@@H](Cc1cc(I)ccc1CCP(=O)(O)O)C(=O)O [Example 6, 5-Iodo-2-(2-phosphonoethyl)phenylalanine] | 
5 |  |  |  | NC(CCCc1ccccc1CP(=O)(O)O)C(=O)O (stereo not drawn) [2-amino-5-[2-phosphonomethylphenyl]pentanoic acid] | binding affinity for kainate receptors (in words) (kainate receptors): very low binding affinity; NMDA antagonism (in words) (NMDA): antagonists of NMDA
6 | > 100 |  |  | CCOC(=O)[C@@H](N)Cc1cc(C)ccc1CCP(=O)(O)O [Example 17, 5-Methyl-2-(2-phosphonoethyl)phenylalanine ethyl ester] | 
7 | 10 | > 4.00 | 4.21 | N[C@@H](Cc1cc(Br)ccc1CCP(=O)(O)O)C(=O)O [Example 3, 5-Bromo-2-(2-phosphonoethyl)phenylalanine] | 
8 | > 100 |  |  | Cc1cccc(C[C@H](N)C(=O)O)c1CCP(=O)(O)O [Example 15, 3-Methyl-2-(2-phosphonoethyl)phenylalanine] | 
9 | 13 |  |  | N[C@@H](Cc1ccc([N+](=O)[O-])cc1CCP(=O)(O)O)C(=O)O [Example 22, 4-Nitro-2-(2-phosphonoethyl)phenylalanine] | 
10 | 17 | > 4.00 | 4.30 | CCc1ccc(CCP(=O)(O)O)c(C[C@H](N)C(=O)O)c1 [Example 2, 5-Ethyl-2-(2-phosphonoethyl)phenylalanine] | 
11 |  |  |  | NC(Cc1ccccc1CCP(=O)(O)O)C(=O)O (stereo not drawn) [2-amino-3-[2-(2-phosphonoethyl)phenyl]propanoic acid] | binding affinity for kainate receptors (in words) (kainate receptors): very low binding affinity; NMDA antagonism (in words) (NMDA): antagonists of NMDA
12 | 15 | > 4.00 | 4.32 | N[C@@H](Cc1cc(Cl)ccc1CCP(=O)(O)O)C(=O)O [Example 4, 5-Chloro-2-(2-phosphonoethyl)phenylalanine] | 
13 | 29 |  |  | CC(C)(C)c1ccc(CCP(=O)(O)O)c(C[C@H](N)C(=O)O)c1 [Example 10, 5-t-Butyl-2-(2-phosphonoethyl)phenylalanine] | 
14 |  |  |  | NC(Cc1ccccc1CP(=O)(O)O)C(=O)O (stereo not drawn) [2-amino-3-[2-phosphonomethylphenyl]propanoic acid] | binding affinity for kainate receptors (in words) (kainate receptors): very low binding affinity; NMDA antagonism (in words) (NMDA): antagonists of NMDA
15 |  |  |  | O=C(O)C1CN(CCCP(=O)(O)O)CCN1 (stereo not drawn) [CPP, reference compound] | ED50 (PTZ-induced seizures): 7.3 mg/kg; ED50 against PTZ-induced seizures, i.c.v. (PTZ-induced seizures; i.c.v.): 0.15 nmol
16 | 76 | > 4.00 |  | N[C@@H](Cc1cc(-c2ccccc2)ccc1CCP(=O)(O)O)C(=O)O [Example 11, 5-Phenyl-2-(2phosphonoethyl)-phenylalanine] | 
17 | 12 |  | 4.41 | Cc1cc(C)c(CCP(=O)(O)O)c(C[C@H](N)C(=O)O)c1 [Example 7, 3,5-Dimethyl-2-(2-phosphonoethyl)phenylalanine] | 

Row | Compound | Ki, inhibition of KA-induced currents [1] [µM] | pKi [1] | pKi (AMPA receptor) | also measured
18 | Cl.N[C@@H](Cc1cc(C2CCCCC2)ccc1CCP(=O)(O)O)C(=O)O [Example 12, 5-Cyclohexyl-2-(2-phosphonoethyl) phenylalanine hydrochloride] | 139 |  |  | 
19 | O=c1[nH]c2cc([N+](=O)[O-])c([N+](=O)[O-])cc2[nH]c1=O [DNQX, reference compound] | 0.1 |  | 6.60 | 
20 | Cl.N[C@@H](Cc1cccc(-c2ccccc2)c1CCP(=O)(O)O)C(=O)O [Example 16, 3-Phenyl-2-(2-phosphonoethyl) phenylalanine hydrochloride] | 83 |  |  | 
21 | Cc1ccc(CCP(=O)(O)O)c(C[C@H](N)C(=O)O)c1 [Example 1, 5-Methyl-2-(2-phosphonoethyl)phenylalanine] | 11 | > 4.00 | 4.89 | ED50 (PTZ-induced seizures): 98 mg/kg; potency relative to CPP against PTZ-induced seizures (PTZ-induced seizures; i.c.v.): ~2 times; ED50 against PTZ-induced seizures, i.c.v. (PTZ-induced seizures; i.c.v.): 0.09 nmol; protection against PTZ-induced seizures (in words) (PTZ-induced seizures; mouse, in vivo): dose-dependent protection against PTZ-induced seizures; effect against PTZ-induced seizures following systemic administration (in words) (PTZ-induced seizures; systemic (i.p.) administration, compared with CPP): effective following systemic administration, but was less potent than CPP; ChAT, % Activity of Contralateral Striatum [2, 5]: 98 ± 6%; reduction in ChAT activity [2, 6]: 2%; GAD, % Activity of Contralateral Striatum [3, 5]: 88 ± 17%; reduction in GAD activity [3, 6]: 12%
